Assay results published in patent publication US10988459B2 (priority 2015, dated 2021).

target: human RIP1 kinase domain (2-375) (Homo sapiens (Human), UniProt Q13546); experiment: biochemical; type: biochemical; conditions: Table 1; apparent Ki (Morrison tight-binding fit); 50 nM RIP1 kinase domain, 50 uM ATP, 2 hours incubation; read-out: RIP1 Ki
Summary of the method: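 Ki^app comes from Morrison tight-binding fits of fractional activity versus compound concentration. Activity was read as ADP production, via tracer displacement lowering fluorescence polarization (633 nm laser). Conditions: 2 h, 50 nM insect-cell-expressed enzyme, 50 uM ATP, 30 mM MgCl2, 1 mM DTT, 0.5% DMSO, pH 7.5 Hepes.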

Chain of human RIP1 kinase domain (2-375) (Q13546 2-375): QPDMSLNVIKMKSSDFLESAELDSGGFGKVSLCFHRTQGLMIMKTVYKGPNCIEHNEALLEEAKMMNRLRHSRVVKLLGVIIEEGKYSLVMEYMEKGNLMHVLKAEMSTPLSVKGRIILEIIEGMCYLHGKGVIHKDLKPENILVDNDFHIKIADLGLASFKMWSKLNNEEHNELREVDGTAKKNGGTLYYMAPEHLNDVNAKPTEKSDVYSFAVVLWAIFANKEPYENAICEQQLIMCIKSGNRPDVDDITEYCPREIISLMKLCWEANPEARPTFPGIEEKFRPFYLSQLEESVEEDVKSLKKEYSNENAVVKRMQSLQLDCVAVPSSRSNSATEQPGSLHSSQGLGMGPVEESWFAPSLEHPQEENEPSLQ

SMILES | Ki [nM]
CN1C(=O)[C@@H](NC(=O)c2ncc3n2CC(C(F)(F)F)CC3)COc2ccccc21 (stereo partly drawn) [Example 36, N—((S)-5-methyl-4-oxo-2,3,4,5-tetrahydrobenzo[b][1,4]oxazepin-3-yl)-6-(trifluoromethyl)-5,6,7,8-tetrahydroimidazo[1,5-a]pyridine-3-carboxamide] | 185
CN1C(=O)[C@@H](NC(=O)c2ncn3c2CC(C(F)(F)F)CC3)COc2ccccc21 (stereo partly drawn) [Example 38, N-[(3S)-5-methyl-4-oxo-2,3-dihydro-1,5-benzoxazepin-3-yl]-7-(trifluoromethyl)-5,6,7,8-tetrahydroimidazo[1,5-a]pyridine-1-carboxamide] | 87.4
O=C(N[C@H]1COc2[nH]ncc2NC1=O)c1cn(Cc2ccc(F)c(F)c2)cn1 [Example 17, 1-[(3,4-difluorophenyl)methyl]-N-[(6S)-5-oxo-1,4,6,7-tetrahydropyrazolo[3,4-b][1,4]oxazepin-6-yl]imidazole-4-carboxamide] | > 10000
CN1C(=O)[C@@H](NC(=O)c2nnc(Cc3ccccc3)[nH]2)CCn2nc(C(F)(F)F)cc21 [Example 80, (S)-5-benzyl-N-(4-methyl-5-oxo-2-(trifluoromethyl)-5,6,7,8-tetrahydro-4H-pyrazolo[1,5-a][1,3]diazepin-6-yl)-4H-1,2,4-triazole-3-carboxamide] | 64

same assay, conditions: Table 5; apparent Ki (Morrison tight-binding fit); 50 nM RIP1 kinase domain, 50 uM ATP, 2 hours incubation; read-out: Ki

SMILES | Ki [nM]
CN1C(=O)[C@@H](NC(=O)c2cc3c(cn2)CO[C@@]3(C)C(F)(F)F)COc2ccccc21 [Example 744, (1R)-1-methyl-N-[(3S)-5-methyl-4-oxo-2,3-dihydro-1,5-benzoxazepin-3-yl]-1-(trifluoromethyl)-3H-furo[3,4-c]pyridine-6-carboxamide] | 10
CN1C(=O)[C@@H](NC(=O)c2ncn(Cc3ccccc3)n2)CCn2nc(CN3CC(F)C3)cc21 [Example 782, (S)-1-benzyl-N-(2-((3-fluoroazetidin-1-yl)methyl)-4-methyl-5-oxo-5,6,7,8-tetrahydro-4H-pyrazolo[1,5-a][1,3]diazepin-6-yl)-1H-1,2,4-triazole-3-carboxamide] | 142
CN1C(=O)[C@@H](NC(=O)c2nc3n(n2)C(c2ccccc2)CCC3)COc2ccccc21 (single isomer, unassigned) [Example 791] | 13
Cc1nccn1Cc1cc2n(n1)CCC(NC(=O)c1ncn(Cc3ccccc3)n1)C(=O)N2C (racemic) [Example 706, 1-benzyl-N-[4-methyl-2-[(2-methylimidazol-1-yl)methyl]-5-oxo-7,8-dihydro-6H-pyrazolo[1,5-a][1,3]diazepin-6-yl]-1,2,4-triazole-3-carboxamide] | 413
C[C@@]1(C(F)(F)F)OCc2cnc(C(=O)N[C@H]3CCc4cc(F)cc(F)c4NC3=O)nc21 [Example 749, (7R)-7-methyl-N-[(3S)-7,9-difluoro-2-oxo-1,3,4,5-tetrahydro-1-benzazepin-3-yl]-7-(trifluoromethyl)-5H-furo[3,4-d]pyrimidine-2-carboxamide] | 12
Cc1nc(-c2cc3n(n2)CCC(NC(=O)c2ncn(Cc4ccccc4)n2)C(=O)N3C)cn1C (racemic) [Example 776, 1-benzyl-N-(2-(1,2-dimethyl-1H-imidazol-4-yl)-4-methyl-5-oxo-5,6,7,8-tetrahydro-4H-pyrazolo[1,5-a][1,3]diazepin-6-yl)-1H-1,2,4-triazole-3-carboxamide] | 212
COCCc1cc2n(n1)CC[C@H](NC(=O)c1ncn(Cc3ccccc3)n1)C(=O)N2C [Example 767, 1-benzyl-N-[(6S)-2-(2-methoxyethyl)-4-methyl-5-oxo-7,8-dihydro-6H-pyrazolo [1,5-a][1,3]diazepin-6-yl]-1,2,4-triazole-3-carboxamide] | 64

same assay, conditions: human RIP1 kinase domain (2-375), 50 uM ATP, 2 hours incubation, Transcreener ADP assay; read-out: RIP1 Ki

SMILES | Ki [nM]
CN1C(=O)C(NC(=O)c2nnc(Cc3ccccc3)[nH]2)CCn2nc3c(c21)CSC3 (centres unmarked) [Example 145, 5-benzyl-N-(1-methyl-2-oxo-1,2,3,4,5,10-hexahydro-8H-thieno[3′,4′:3,4]pyrazolo[1,5-a][1,3]diazepin-3-yl)-4H-1,2,4-triazole-3-carboxamide] | 78.6
CN1C(=O)[C@@H](NC(=O)c2ccn(Cc3ccc(F)c(F)c3)n2)COc2c1cnn2C [Example 182, (S)-1-(3,4-difluorobenzyl)-N-(1,4-dimethyl-5-oxo-4,5,6,7-tetrahydro-1H-pyrazolo[3,4-b][1,4]oxazepin-6-yl)-1H-pyrazole-3-carboxamide] | 2300
CN1C(=O)C(NC(=O)c2cn(Cc3ccc(F)c(F)c3)cn2)CCn2ccnc21 (centres unmarked) [Example 178, 1-(3,4-difluorobenzyl)-N-(9-methyl-8-oxo-6,7,8,9-tetrahydro-5H-imidazo[1,2-a][1,3]diazepin-7-yl)-1H-imidazole-4-carboxamide] | 477
CCOC(=O)[C@H]1[C@H]2CC[C@H](NC(=O)c3ncn(Cc4ccccc4)n3)C(=O)N(C)[C@H]21 (single isomer, unassigned) [Example 132] | 5000

same assay, conditions: human RIP1 kinase domain (2-375), Transcreener ADP assay, 50 uM ATP, 2 hours incubation; read-out: RIP1 Ki

SMILES | Ki [nM]
CN1C(=O)C(NC(=O)c2ncn(CCC(F)(F)F)n2)CCn2nc(C3CC3)cc21 (centres unmarked) [Example 258, N-(2-cyclopropyl-4-methyl-5-oxo-5,6,7,8-tetrahydro-4H-pyrazolo[1,5-a][1,3]diazepin-6-yl)-1-(3,3,3-trifluoropropyl)-1H-1,2,4-triazole-3-carboxamide] | 1600
Cc1cc2n(n1)CCC(NC(=O)c1ncn(Cc3ccc(Cl)cc3)n1)C(=O)N2C (centres unmarked) [Example 249, 1-(4-chlorobenzyl)-N-(2,4-dimethyl-5-oxo 6,7,8-tetrahydro-4H-pyrazolo[1,5-a][1,3]diazepin-6-yl)-1H-1,2,4-triazole-3-carboxamide] | 92.1

same assay, conditions: tight-binding apparent inhibition constant; human RIP1 kinase domain (2-375) 50 nM, 50 uM ATP, 2 hours; read-out: Ki

SMILES | Ki [nM]
Cc1cc2n(n1)CC[C@H](NC(=O)c1ncc3cnn(-c4ccccc4)c3n1)C(=O)N2C [Example 540, 1-phenyl-N-[(6S)-2,4-dimethyl-5-oxo-7,8-dihydro-6H-pyrazolo[1,5-a][1,3]diazepin-6-yl]pyrazolo[3,4-d]pyrimidine-6-carboxamide] | 57
CCC[C@@H]1CCCc2nc(C(=O)N[C@H]3COc4ccccc4N(C)C3=O)nn21 (racemic) [Example 416, (R)—N—((S)-5-methyl-4-oxo-2,3,4,5-tetrahydrobenzo[b][1,4]oxazepin-3-yl)-5-propyl-5,6,7,8-tetrahydro-[1,2,4]triazolo[1,5-a]pyridine-2-carboxamide] | 4.63
Cn1cc(-c2cccc3nc(C(=O)N[C@H]4COc5cc(F)cc(F)c5NC4=O)nn23)cn1 [Example 421, (S)—N-(6,8-difluoro-4-oxo-2,3,4,5-tetrahydrobenzo[b][1,4]oxazepin-3-yl)-5-(1-methyl-1H-pyrazol-4-yl)-[1,2,4]triazolo[1,5-a]pyridine-2-carboxamide] | 15.9
CCC[C@H]1CCCc2nc(C(=O)N[C@H]3COc4ccccc4N(C)C3=O)nn21 (racemic) [Example 415, (S)—N—((S)-5-methyl-4-oxo-2,3,4,5-tetrahydrobenzo[b][1,4]oxazepin-3-yl)-5-propyl-5,6,7,8-tetrahydro-[1,2,4]triazolo[1,5-a]pyridine-2-carboxamide] | 12.6
CN1C(=O)[C@@H](NC(=O)c2nc3cccc(-c4ccccc4F)n3n2)CCn2nccc21 [Example 386, (S)-5-(2-fluorophenyl)-N-(4-methyl-5-oxo-5,6,7,8-tetrahydro-4H-pyrazolo[1,5-a][1,3]diazepin-6-yl)-[1,2,4]triazolo[1,5-a]pyridine-2-carboxamide] | 14.8
CN1C(=O)[C@@H](NC(=O)c2nc3n(n2)CCO[C@H]3c2ccccc2)COc2ccccc21 [Example 516, (8S)-8-phenyl-N-[(3S)-5-methyl-4-oxo-2,3-dihydro-1,5-benzoxazepin-3-yl]-6,8-dihydro-5H-[1,2,4]triazolo[5,1-c][1,4]oxazine-2-carboxamide] | 18
CC(C)[C@H]1CCCc2nc(C(=O)N[C@H]3COc4cc(F)cc(F)c4NC3=O)nn21 (single isomer, unassigned) [Example 447] | 207

Next, values leading:

Ki [nM] | SMILES
5 | O=C(N[C@H]1CCc2cc(F)cc(F)c2NC1=O)c1nc2n(n1)[C@@H](c1ccccc1)CC2 [Example 622, (5R)-5-phenyl-N-[(3S)-7,9-difluoro-2-oxo-1,3,4,5-tetrahydro-1-benzazepin-3-yl]-6,7-dihydro-5H-pyrrolo[1,2-b][1,2,4]triazole-2-carboxamide]
1180 | CC[C@]1(C)OCc2cnc(C(=O)N[C@H]3CCn4nc(C)cc4N(C)C3=O)nc21 (racemic) [Example 690, rac-(7S)-7-ethyl-7-methyl-N-[rac-(6S)-2,4-dimethyl-5-oxo-7,8-dihydro-6H-pyrazolo [1,5-a][1,3]diapepin-6-yl]-5H-furo[3,4-d]pyrimidine-2-carboxamide]
240 | CN1C(=O)[C@@H](NC(=O)c2nc3n(n2)CCC32CCOCC2)COc2ccccc21 [Example 634, N-[(3S)-5-methyl-4-oxo-2,3-dihydro-1,5-benzoxazepin-3-yl]spiro[5,6-dihydropyrrolo[1,2-b][1,2,4]triazole-7,4′-tetrahydropyran]-2-carboxamide]
140 | Cc1cc2n(n1)CC[C@H](NC(=O)c1ncn(CC3(C)CCC3)n1)C(=O)N2C [Example 560, 1-[(1-methylcyclobutyl)methyl]-N-(6S)-2,4-dimethyl-5-oxo-7,8-dihydro-6H-pyrazolo[1,5-a][1,3]diazepin-6-yl-1,2,4-triazole-3-carboxamide]
450 | CN1C(=O)[C@@H](NC(=O)c2nc3n(n2)CC[C@H]3c2ccccc2)COc2ccccc21 [Example 572, (7S)-7-phenyl-N-[(3S)-5-methyl-4-oxo-2,3-dihydro-1,5-benzoxazepin-3-yl]-6,7-dihydro-5H-pyrrolo[1,2-b][1,2,4]triazole-2-carboxamide]
